Laboratory results: patent publication US20250177394A1, “COMBINATIONS OF CTPS1 AND BCL2 INHIBITORS FOR CANCER” (Step Pharma S.A.S., priority 2022, published 2025)
pIC50: −log10 of the molar value.

Experiments:
[1] = tested on: human CTPS1 versus CTPS2; assay: Human CTPS1 versus CTPS2 selectivity assessment by RapidFire/MS; format: biochemical; conditions: fold selectivity between CTPS1 and CTPS2
Method: The enzyme inhibitory activities against each target isoform of interest were determined for compounds using an optimised RapidFire high-throughput mass spectrometry (RF/MS) assay format. RF/MS assays for both human CTPS1 and CTPS2 were performed in assay buffer consisting of 50 mM HEPES (Merck), 20 mM MgCl2, 5 mM KCl, 1 mM DTT, 0.01% Tween-20, pH to 8.0 accordingly. Human full-length active C-terminal FLAG-His-tag CTPS1 (UniProtKB—P17812, CTPS[1-591]-[…], SEQ ID NO: 1) was obtained from Proteros biostructures GmbH. Human full length active C-terminal FLAG-His-Avi tagged CTPS2 (UniProtKB—Q9NRF8, CTPS2 [1-586]-[…], SEQ ID NO: 2) was obtained from Harker Bio.
Human CTPS (1 or 2) protein was prepared in 1× assay buffer to the final working protein concentration required for the reaction. A 2 uL volume per well of 2×CTPS (1 or 2) protein was mixed with 40 nL of compound using acoustic (ECHO) delivery and incubated for 10 minutes at 25° C. […] Each mixture was incubated for an appropriate amount of time per isoform within the determined linear phase of the reaction at 25° C. […]
In all cases, the enzyme converts UTP to CTP. […] Readout for data analysis was calculated as the ratio between the peak area of the product CTP and the internal standard ^13C9-^15N3-CTP. […]
Fold selectivity between CTPS1 and CTPS2 was subsequently calculated according to the following equation: […]

[2] = tested on: human mantle cell lymphoma cell line; assay: Western blot after exposure to CTPS1 inhibitor; format: cell-based; conditions: 24 hour exposure versus control; GAPDH loading control
Method: Cells were incubated on ice for 40 minutes with lysis buffer then centrifuged at 11000 rpm for 30′. Total protein extracts were collected from supernatants and protein concentrations determined using a colorimetric assay. 30 μg of proteins were separated by SDS-PAGE using precast gels and transferred to membranes using the Trans-Blot Turbo system. Membranes were blocked for 1 hour in a 5% dry milk, TBS-Tween20 solution and incubated with primary antibodies overnight at 4° C. Membranes were incubated for at least 1 hour with secondary antibodies, either goat anti-mouse or goat anti-rabbit conjugated with peroxidase. Chemiluminescence was determined using the Clarity Western ECL Substrate on the Fusion FX imaging system.

[3] = tested on: human mantle cell lymphoma cell lines; assay: RNA sequencing after exposure to CTPS1 inhibitor; format: cell-based; conditions: 24 hour exposure at IC50 versus control
Method: RNA was obtained from cancer cell lines treated with CTPS1-IA at IC50 or control for 24 hours. Libraries were prepared from 10 ng total RNA. mRNA poly(A) tails were tagged with universal adapters, sample-specific barcodes and unique molecular identifiers using template switching reverse transcriptase. Barcoded cDNAs from multiple samples were then pooled, amplified and tagmented using a transposon-fragmentation approach which enriches for 3′ ends of cDNA. A library of 350-800 bp length was run on an Illumina NovaSeq 6000 using NovaSeq 6000 SP Reagent Kit 100 cycles (ref #20027464). Raw fastq pairs used for analysis matched the following criteria: the 16 bases of the first read correspond to 6 bases for a sample-specific barcode and 10 bases for a unique molecular identifier. The second read (58 bases) corresponds to the captured poly(A) RNAs sequence. Demultiplexing of these fastq pairs was performed to generate one single-end fastq for each of the 96 samples. fastq files were then aligned with bwa to reference mRNA sequences and the mitochondrial genomic sequence (UCSC). DGE profiles were generated by parsing the alignment files (.bam) and counting for each sample the number of unique molecular identifiers associated with each RefSeq gene. Reads aligned on multiple genes, containing more than one mismatch with the reference sequence, or containing a polyA pattern were discarded. […]

[4] = target: human CTPS1 (Homo sapiens (Human), UniProt P17812); assay: Human CTPS1 enzyme inhibition, ADP-Glo Max assay; format: biochemical; conditions: Human CTPS1 Enzyme Inhibition data
Sequence of human CTPS1 (P17812 whole entry): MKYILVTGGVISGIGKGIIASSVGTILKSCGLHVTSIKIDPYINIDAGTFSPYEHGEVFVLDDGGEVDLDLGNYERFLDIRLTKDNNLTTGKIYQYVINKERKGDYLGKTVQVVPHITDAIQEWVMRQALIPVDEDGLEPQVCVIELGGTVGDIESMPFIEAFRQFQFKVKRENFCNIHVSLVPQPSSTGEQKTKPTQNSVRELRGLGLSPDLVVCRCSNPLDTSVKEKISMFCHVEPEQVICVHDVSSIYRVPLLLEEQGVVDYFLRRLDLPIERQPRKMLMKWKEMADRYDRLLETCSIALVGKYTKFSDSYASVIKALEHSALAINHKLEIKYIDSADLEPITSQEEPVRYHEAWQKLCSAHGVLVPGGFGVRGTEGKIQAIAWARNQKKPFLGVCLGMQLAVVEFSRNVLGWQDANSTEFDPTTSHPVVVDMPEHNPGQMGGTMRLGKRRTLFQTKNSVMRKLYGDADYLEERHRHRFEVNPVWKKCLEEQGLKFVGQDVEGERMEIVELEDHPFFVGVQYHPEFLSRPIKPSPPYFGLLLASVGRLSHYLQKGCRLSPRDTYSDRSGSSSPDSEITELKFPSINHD
Method: The enzyme inhibitory activities of compounds CTPS1-IA and CTPS1-IB against CTPS1 were determined using the ADP-Glo™ Max assay (Promega, UK).
Assays for human CTPS1 were performed in 1× assay buffer containing 50 mM Tris, 10 mM MgCl2, 0.01% Tween-20, pH to 8.0 accordingly. Finally, immediately before use, L-cysteine was added to the 1× assay buffer to a final concentration of 2 mM. All reagents are from Sigma-Aldrich unless specified otherwise. Human full length active C-terminal FLAG-His8-tag CTPS1 (UniProtKB—P17812, CTPS[1-591]-[…], SEQ ID NO: 1) was obtained from Proteros biostructures GmbH.
3× human CTPS1 protein was prepared in 1× assay buffer to the final working protein concentration required for the reaction. […] The enzymatic reaction was then initiated by addition of a 2 uL per well volume of a pre-mixed substrate mix (UltraPure ATP from ADP-Glo™ Max kit (0.31 mM), GTP (0.034 mM), UTP (0.48 mM) and L-glutamine (0.186 mM)) and the mixture was incubated for an appropriate amount of time within the determined linear phase of the reaction at 25° C. under sealed plate conditions with constant agitation at 500 revolutions per minute (rpm). ADP-Glo™ Max reagent was added for 60 minutes (6 μL per well) and subsequently ADP-Go™ Max development reagent was added for 60 minutes (12 uL per well) prior to signal detection in a microplate reader (EnVision® Multilabel Reader, Perkin Elmer). […]

| pIC50 [4] | Compound | Selectivity [1] | BCL2 protein [2] | MCL1 protein [2] | BCL2 transcripts [3] | MCL1 transcripts [3] |
| --- | --- | --- | --- | --- | --- | --- |
| ≥ 7.00 | CCOc1cncc(-c2ccc(NC(=O)C3(c4ccnc(NS(=O)(=O)C5CC5)n4)CCOCC3)nc2)n1 [CTPS1-IA, 4-(2-(cyclopropanesulfonamido)pyrimidin-4-yl)-N-(5-(6-ethoxypyrazin-2-yl)pyridin-2-yl)tetrahydro-2H-pyran-4-carboxamide] | >60 fold | increase | decrease | increase | decrease |
| ≥ 7.00 | CCOc1cncc(-c2ccc(NC(=O)C3(c4ccnc(NS(=O)(=O)CC)n4)CCOCC3)nc2)n1 [CTPS1-IB, N-(5-(6-ethoxypyrazin-2-yl)pyridin-2-yl)-4-(2-(ethylsulfonamido)pyrimidin-4-yl)tetrahydro-2H-pyran-4-carboxamide] | >60 fold | – | – | – | – |
